# Reference: article PMC6882465, “Towards discovery of new leishmanicidal scaffolds able to inhibit Leishmania GSK-3” (Journal of Enzyme Inhibition and Medicinal Chemistry, 2019)
# Target: LdGSK-3 (Leishmania donovani, UniProt A6N857)
# Experiment: Inhibition of LdGSK-3 with Kinase Glo
# Type: biochemical
# Details: Table S2; 10 µM
# Protocol: Assessment of inhibition of LdGSK-3 with Kinase Glo^TM
# The reaction was allowed to proceed for 30 min at 30 °C, then it was incubated at room temperature for another 10 min after addition of Kinase Glo reagents (Promega, Ref. V6712). ATP consumption by LdGSK-3 was measured indirectly through end-point luminescence measurement of each well in a Varioskan Flash microplate reader (Thermo).
# LdGSK-3, sequence (A6N857 entry or part of it): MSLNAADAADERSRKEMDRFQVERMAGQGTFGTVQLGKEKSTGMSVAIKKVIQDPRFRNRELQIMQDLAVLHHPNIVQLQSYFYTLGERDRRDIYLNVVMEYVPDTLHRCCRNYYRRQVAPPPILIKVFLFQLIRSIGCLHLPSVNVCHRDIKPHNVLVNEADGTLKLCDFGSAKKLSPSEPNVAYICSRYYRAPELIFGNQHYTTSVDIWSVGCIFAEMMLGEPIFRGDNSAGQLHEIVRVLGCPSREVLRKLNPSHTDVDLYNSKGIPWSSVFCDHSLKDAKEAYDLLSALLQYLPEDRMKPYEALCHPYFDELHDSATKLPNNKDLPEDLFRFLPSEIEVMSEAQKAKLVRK
row,Structure (SMILES),% inhibition @ 10µM (initial screening on LdGSK3)
1,NC(=O)c1ccsc1NC(=O)c1ccc([N+](=O)[O-])s1 [Compound 117],6.20±1.15%
2,O=C(Nc1nc(-c2ccccn2)cs1)c1ccc(S(=O)(=O)N2CCCCC2)cc1 [Compound 116],7.05±1.35%
3,COc1ccc(CNc2nsc3ccccc23)cc1OC [Compound 150],13.55±4.65%
4,COc1cnc2ccc(=O)n(CCN3CCC(NC/C=C/c4cc(F)ccc4F)CC3)c2c1 [Compound 84],3.55±2.20%
5,O=C(c1cccc(Nc2ncc(-c3ccc4c(c3)OCO4)cn2)c1)N1CCSC1 [Compound 140],18.20±7.00%
6,N#Cc1cccc(CNc2ccc(-c3cnn(CC4CC4)c(=O)c3C#N)cc2)c1 [Compound 63],-3.20±0.80%
7,O=C(Nc1ccccc1)Nc1nc(-c2ccccn2)cs1 [Compound 64],1.40±0.95%
8,c1ccc2sc(Nc3nc4ncccc4[nH]3)nc2c1 [Compound 86],6.55±2.70%
9,O=C(Nc1n[nH]c(-c2ccccn2)n1)C1CC1c1ccccc1 (stereo not shown) [Compound 76],5.70±0.50%
10,Cc1nc2c(-c3nc(-c4ccc(N)cc4)n[nH]3)cccn2c1C [Compound 111],7.35±4.65%
11,Cc1ccc2c(c1)SC(C(=O)Nc1n[nH]c(-c3ccccn3)n1)C2 (stereo not shown) [Compound 115],3.20±0.80%
12,Cc1cc(-c2cccc3ccccc23)nc2nc(N)nc(N)c12 [Compound 57],6.10±3.15%
13,CC(c1cc(Cl)cc(Cl)c1)N(C)c1ncc2c(N)nc(N)nc2n1 (stereo not shown) [Compound 75],10.05±1.10%
14,Cn1c(CC(=O)NNC(=O)c2ccc3ccccc3n2)nc2ccccc21 [Compound 80],7.95±1.65%
15,COc1ccc(Nc2nc(-c3ccccn3)cc(N3CCCC(O)C3)n2)cc1 (stereo not shown) [Compound 42],5.30±2.55%
16,CCN(Cc1nc2ccc(C(=O)N3CCN(c4ncccn4)CC3)cc2[nH]1)C1CCCc2cccnc21 (stereo not shown) [Compound 182],9.60±1.20%

row,Structure (SMILES),% inhibition @ 10µM (initial screening on LdGSK3)
1,COc1ccc(-c2cnc(NC(=O)c3ccc(F)cc3)n2C)cc1 [Compound 88],2.00±1.95%
2,O=C(c1cccc(Nc2ncc(-c3ccc4c(c3)OCO4)cn2)c1)N1CCOCC1 [Compound 189],12.20±0.75%
3,COc1cc2c(cc1OC)[C@H]1[C@@H](C)c3ccc(OC)c(OC)c3CN1CC2 [Compound 130],12.85±2.80%
4,COc1ccc(Oc2ccc(C(C)N(C)c3ncc4c(N)nc(N)nc4n3)cc2)cc1 (stereo not shown) [Compound 56],0.50±2.95%
5,Cc1nc(-c2ccc3c(c2)OCO3)sc1C(=O)NCc1ccc2c(c1)OCO2 [Compound 205],14.00±2.25%
6,COc1ccccc1-n1c(SCC(=O)Nc2ccc3c(c2)OCO3)nc2c(c1=O)SCC2 [Compound 172],5.20±2.65%
7,Br.Fc1ccc(Nc2nc(-c3ccccn3)cs2)cc1 [Compound 171],4.25±2.30%
8,Cc1nn(-c2nc3ccccc3[nH]2)c2c1C(c1ccc(O)cc1)CC(=O)N2 (stereo not shown) [Compound 120],18.15±1.70%
9,Cc1ccc(Nc2nc(C3CCCN3Cc3ccn[nH]3)cs2)nc1 (stereo not shown) [Compound 65],-0.35±2.35%
10,N#CN1CC[C@@H](NC(=O)Nc2ccccc2Oc2ccccc2)C1 [Compound 72],7.40±4.30%
11,NC(=O)c1cc(NC(=O)c2ccccc2COc2ccccc2)ccc1Cl [Compound 105],-0.45±1.10%
12,COc1cccc(-c2c(C)nn(-c3nc(N)nc(-c4ccccn4)n3)c2N)c1 [Compound 61],-2.20±1.15%
13,c1ccc(-c2nc(NCc3ccco3)c3ccccc3n2)nc1 [Compound 87],-0.05±0.95%
14,O=C(Cc1ccc2c(c1)CCC2)Nc1n[nH]c(-c2ccccn2)n1 [Compound 123],12.15±3.90%
15,COc1ccc(-c2csc(NC(=O)c3ccc([N+](=O)[O-])s3)n2)cc1 [Compound 201],18.65±3.35%

# Other lines, results leading:
row,% inhibition @ 10µM (initial screening on LdGSK3),Structure (SMILES)
1,7.50±0.65%,CCOc1cc(NCCCN2CCN(C)CC2)c2ncccc2c1.Cl.Cl.Cl [Compound 112]
2,25.85±1.25%,CC(C)(C)Nc1nc(Nc2ccc3c(c2)CS(=O)(=O)C3)nc2[nH]ccc12 [Compound 103]
3,5.95±1.25%,Cc1cc(C)cc(NS(=O)(=O)c2cc(-c3cc(C)[nH]n3)ccc2C)c1 [Compound 51]
4,9.25±0.40%,CCOc1ccc2nc(NC(=O)c3ccc([N+](=O)[O-])s3)sc2c1 [Compound 145]
5,-2.40±2.70%,CC(C)(C)Nc1nc(-c2ccccn2)nc2ccccc12 [Compound 192]
6,4.95±4.45%,CC(C)COC(=O)Nc1ccc(N2CCC(CNS(=O)(=O)c3ccccc3)CC2)c(F)c1 [Compound 46]
7,14.80±2.25%,COc1ccc2ncc(Cl)c(CCN3CC[C@H](NCc4cc5c(cn4)OCS5)[C@@H](O)C3)c2n1 [Compound 183]
8,8.80±2.70%,CCCc1cc(C(=O)Nc2ncc(-c3cccc(Br)c3)n2C)n[nH]1 [Compound 159]
9,4.70±2.30%,CC(C)(C)c1cc(NC2CC2)nc(-c2ccccn2)n1 [Compound 50]
10,-2.35±1.95%,CCc1cc(C(=O)Nc2nccn2-c2ccccc2)cs1 [Compound 93]
11,-0.75±1.55%,Cc1nn(-c2nc(N)nc(-c3ccccn3)n2)c(C)c1Cc1ccccc1 [Compound 104]
12,1.90±2.60%,N#Cc1ccccc1S(=O)(=O)N1CCN(C(=O)CNC(=O)c2ccc3c(c2)OCO3)CC1 [Compound 82]
13,4.90±1.45%,CCOc1ccc(CN(C)Cc2nc(N)nc(Nc3ccc(C)cc3)n2)cc1 [Compound 78]
14,9.60±3.10%,COCc1cnc2c(c1SCc1c(F)cccc1Cl)c(=O)n(C)c(=O)n2C [Compound 148]
15,8.90±5.85%,CCN(CC)c1ccc(S(=O)(=O)N(CC)CC)c2nonc12 [Compound 207]
16,3.45±4.90%,CC(c1ccccn1)N(C)Cc1nc2ccccc2n1C(C)C (stereo not shown) [Compound 85]
17,-2.80±6.35%,Cc1cc(C)n(-c2nc(NC(C)(C)C)nc(N3CCOCC3)n2)n1 [Compound 196]
18,38.45±1.35%,CN(C)S(=O)(=O)c1cccc(CSc2nnc(-c3ccc4c(c3)OCO4)o2)c1 [Compound 167]
19,13.20±1.65%,COc1ccc(-c2cc(C)no2)cc1S(=O)(=O)Nc1ccc(C)c(C)c1 [Compound 170]
20,8.50±1.10%,O=C(CCCNC(=O)c1ccc(Cl)cc1)Nc1nc(-c2ccccn2)cs1 [Compound 98]
21,12.20±2.70%,CCOc1ccccc1C(=O)Nc1nnc(-c2ccc3c(c2)OCO3)s1 [Compound 191]
